Patent US9023831B2, “Methods and compositions of inhibiting complement and cellular activation with Dextran Sulfate” (Novelmed Therapeutics, Inc., priority 2007, dated 2015)
“And” between values parts separate entries of the source, which are not always exact repeats. Equal entries are not always repeated. “Also recorded” adds a separate entry of the source. Where two headings read alike, the source gives them in different places.

Key:
[1] = target: T1, human properdin (or factor P) (Homo sapiens, UniProt P27918); test: Properdin binding to substrate-bound Dextran Sulfate (ELISA); conditions: substrate-bound Dextran Sulfate on microtiter plate; read-out: affinity of properdin binding to Dextran Sulfate (concentration of properdin at 50% maximal binding)
T1 construct: purchased Advanced Research Technology, San Diego, Calif; A139
T1 sequence (P27918 28-469): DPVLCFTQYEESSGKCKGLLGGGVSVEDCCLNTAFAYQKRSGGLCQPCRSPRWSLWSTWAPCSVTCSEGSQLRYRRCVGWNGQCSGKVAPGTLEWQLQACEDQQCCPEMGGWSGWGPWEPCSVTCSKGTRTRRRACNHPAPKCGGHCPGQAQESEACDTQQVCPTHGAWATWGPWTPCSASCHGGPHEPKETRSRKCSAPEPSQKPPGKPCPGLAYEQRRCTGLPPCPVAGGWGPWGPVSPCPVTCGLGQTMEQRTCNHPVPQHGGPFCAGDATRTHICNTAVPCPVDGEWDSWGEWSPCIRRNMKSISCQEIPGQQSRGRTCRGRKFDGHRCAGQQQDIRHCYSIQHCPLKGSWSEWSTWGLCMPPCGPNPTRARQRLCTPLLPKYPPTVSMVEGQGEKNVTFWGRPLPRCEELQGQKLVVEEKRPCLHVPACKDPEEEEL
Method: The binding of properdin appears to be specific and dose dependent. Leading to an affinity of 4 nM. […] Wells without Dextran Sulfate coating serve as background controls. […] Properdin solution was added to the appropriate wells.

[2] = system: Thrombin Generation in Citrated Human plasma; test: Thrombin generation in citrated human plasma (innovin, S2238); format: biochemical
Method: FIG. 7 illustrates NM33014 Inhibits Thrombin Generation in Citrated Human plasma: Citrated Human Plasma was mixed with various concentrations of Dextran Sulfate in the presence of constant concentration of S2238 (Diapharma). […] Data was recorded using Soft Max-Pro on Spectramax 190 kinetic spectramax. Data presented is from a representative experiment that was repeated three times.
Citrated human plasma (100 μl) was mixed with various concentrations of Dextran Sulfate in the presence of constant concentration of S2238 (100 μl of 2 μg/ml).

[3] = system: monocytes (CD11b expression); test: Monocyte activation (CD11b flow cytometry) after tubing loop; format: cell-based, human
Source text: Same samples of blood following the tubing loop were also subjected to monocyte specific flow cytometry. […] Similar data was obtained with multiple donors. In the Figure are shown Rotated Control (blood sample in tubing loop), Unrotated controls (samples taken out before tubing loop). Unrotated represents the background controls.
The activation of neutrophils, monocyte and platelets were quantitated by measuring the levels of the cell-surface expression of CD11b and CD62P on neutrophils/monocytes and platelets, respectively. For CD11b labeling of neutrophils, 200 μl of whole blood collected from the circuits were immediately incubated with 20 μl of phycoerythrin (PE)-anti-CD11b antibody (Becton Dickinson, San Jose, Calif.) for 20 minutes at room temperature in a microcentrifuge tube. Then 2 ml of FACS Lysing Solution (Becton Dickinson) was added for 20 minutes at room temperature to lyse red blood cells and to fix leukocytes. The microcentrifuge tubes were centrifuged at 300 g for 5 minutes for leukocytes and 1200 g for platelets. The supernatant was aspirated and the cells resuspended in PBS for washing. The tubes were spun again, the supernatant aspirated, and the cells finally resuspended in 0.5 ml of 1% paraformaldehyde overnight prior to analysis using an BD-LSR flow cytometer (BD Biosciences). For double labeling to concomitantly identify the neutrophil population, 10 μl of fluorescein isothiocyanate (FITC)-anti-CD15 antibody (clone MMA, Becton Dickinson) were added for incubation together with PE-anti-CD11b antibody to stain neutrophils and anti-CD14 (FITC) along with PE-CD11b was used for monocytes.
Neutrophils bear both C3a and C5a receptors. Thus, prevention of C3a/C5a production should have direct effect on CD11b expression. Monocytes have been known to bear the C3a receptors. C3a produced because of complement activation is known to activate monocytes.

[4] = system: arthritic Lewis rats; test: Joint inflammation and bone destruction in Rat-AIA (CFA-induced arthritis); format: in vivo
Method: Lewis male rats were used to examine the effect of Dextran Sulfate combination with aggrastat (molecular weight 40,000 and 5,000) for the treatment of arthritis. Arthritis was induced in adult male Lewis rats (200-225 gm) by an intradermal injection of complete Freund's adjuvant (CFA) at the base of the tail on the dorsal side. The CFA (100 mg dried and heat killed Mycobacterium butyricum (Difco, Detroit, Mich.) emulsified in 10 ml sterile mineral oil) was prepared by grinding the bacteria powder with a mortar and pestle until the bacterial cell wall turned from a light beige to an eggshell white powder. The mineral oil was then slowly mixed into the bacterial cell wall using the mortar and pestle. All animals in each experiment were challenged with the same preparation of adjuvant and nearly 100% of the animals developed arthritis. Dextran Sulfate was obtained from Sigma Aldrich Corp and Aggrastat was purchased from the pharmacy. Dextran Sulfate was dissolved in aggrastat. The drug treatment started on day 10 post-immunization, the time of disease onset, and continued until sacrifice. The dose of Dextran Sulfate was 20 & 10 mg/Kg/per day per 150-200 g rat. The inflammatory response was assesed by the measurement of paw volume. Paw volume appears to be very consistent and gave slow increasing arthritis over time. Paw volumes were measured every day until sacrifice using Plethysmometer (IITC). After the sacrifice/euthanasia, limbs were removed and processed for;
a) histological evaluations: Only three animals were used per group. Sections were stained with Eosin and hematoxylin to identify various regions within the inflamed limb. Untreated controls have intact cartilage layer and the bone (Score 0) and clear synovium without pannus. Arthritic controls had no defined cartilage bone, and have pannus layer and significant inflammation (Score 5). Enbrel was used as positive control. […] We gave a score of 2.
b) Paw Swelling: Each paw was measured for water displacement using plethysmometer. Paw volume was measured every day.
Continuous treatment of Dextran Sulfate therapies from disease onset affected paw swelling in arthritic rats. All adjuvant-challenged rats developed AA between days 10-12. […] While inflammation was decreased in these treatment groups, we observed a greater effect for these drugs in prevention of bone and cartilage destruction.

[5] = target: properdin (Homo sapiens, UniProt P27918); conditions: Dextran Sulfate added in solution along with properdin
Sequence of properdin (P27918 28-469): as above
Method: Methods: Polystyrene microtiter plates were coated with Dextran Sulfate overnight. Wells without Dextran Sulfate coating served as background controls. After removal of the Dextran Sulfate solution, the plates were washed and blocked with 1% BSA in PBS. Properdin solution with and without Dextran Sulfate was added to the appropriate wells. After this incubation, properdin solution was aspirated from the plate and the plate was washed. The wells were then incubated with anti-properdin monoclonal antibody at a 1:2000 dilution in blocking solution to allow detection of Dextran Sulfate-bound properdin. The wells were rinsed and further incubated with peroxidase-conjugated goat anti-mouse IgG followed by another wash step. Dextran Sulfate-bound properdin was detected by the addition of TMB substrate. The reaction of TMB was quenched by the addition of O-phosphoric acid and the plate read at 450 nm.

[6] = system: Complement Activity in Whole Blood Following Tubing Loop Model; test: rRBC hemolysis with plasma after tubing loop model; conditions: for inhibition of rRBC hemolysis: plasma 10% in AP buffer
Method: Lightscattering was measured as a function of time. […] X-axis is time of hemolysis in seconds and Y-axis is scattering at 700 nm Methods: Whole heparinized blood was diluted with plasmalyte to 50% in the presence or absence of NM3014. Samples were centrifuged, and plasma was subjected to hemolysis assay. Plasma final concentration as 10% in GVB (GVB containing 10 mM MgCl2, 5 mM EGTA). rRBC was added and hemolysis of all samples were recorded.
Plasma aliquots for the alternative pathway hemolytic assays: Plasma samples were subjected to alternative pathway dependent hemolytic assay using AP buffer (GVB containing 10 mM magnesium chloride, 5 mM EGTA). Plasma concentrations were adjusted to 10% final in AP buffer. rRBC were incubated at 37° and the extent of hemolysis was obtained using kinetic run (SoftMax Pro, Molecular Devices, CA).

[7] = system: Complement Activity in Antigen-Induced Arthritic Rabbit; test: Complement activity in antigen-induced arthritic rabbits (C3c assay); conditions: 60 mg/Kg i.v.; for inhibition of complement activation in vivo: ten minutes after treatment, vs vehicle-treated AIA rabbits
Method: METHODS: After the intra-articular ovalbumin injection to induce arthritis, disease pathology developed for seven days prior to the collection of a blood sample to determine complement activation levels and the administration of Dextran Sulfate treatment. Blood samples were drawn prior to all treatments with Dextran Sulfate to establish baseline values and pre-treatment complement activation levels. Dextran Sulfate (60 mg/Kg) was then injected via the marginal vein every day over a 3 day period. Ten minutes after treatment with Dextran Sulfate a second 1-ml blood sample from the ear to assess complement activation shortly after the treatment. Complement activation was assessed using the C3c assay described in methods.

[8] = system: Alternative Pathway (AP) Activation in a Rabbit Erythrocyte Assay; test: Alternative pathway-dependent hemolysis of rabbit erythrocytes in normal human serum; conditions: for inhibition of AP-dependent hemolysis: 10 μg/ml
Method: X axis is time of hemolysis in seconds and Y-axis is scattering at 700 nm. Methods: Normal human serum 10% was incubated with rabbit erythrocytes in AP buffer with and without Dextran Sulfate. Various concentrations of Dextran Sulfate were used ranging from 1 to 60 μg/ml.
The Dextran Sulfate (40,000 molecular weight) was examined in the alternative pathway dependent hemolysis assay. […] Normal human serum, at various concentrations in Gelatin Veronal Buffer (GVB) (Advanced Research Technology) with 5 mM MgCl2 and 10 mM EGTA, was incubated with 37° C. with a fixed number of rabbit erythrocytes (Advanced Research Technology). A progressive decrease in light scatter (due to lysis of intact cells) was measured at 700 nm as a function of time in a temperature-controlled ELISA plate reader. […] The data were recorded and analyzed with a SpectraMax 190 plate reader and SoftMax Pro software.
We evaluated Dextran Sulfate effect in a cellular assay as a means of examining the effects of the Dextran Sulfate on alternative pathway function. Increasing amounts of the Dextran Sulfate were added to 10% human serum that was incubated with rabbit erythrocytes at 37° C.

Substance: Dextran Sulfate [NM3014]
- Kd [1]: 4 nM and ~4 nM
- effect on coagulation (thrombin generation) ([2]; 10 μg/ml): partial effect
- effect on coagulation (thrombin generation) ([2]; 30 μg/ml): inhibit coagulation
- effect on coagulation (thrombin generation) ([2]; 60 μg/ml): inhibit coagulation
- inhibition of monocyte activation ([3]; 40 μg/ml): no effect
- inhibition of monocyte activation ([3]; 100 μg/ml): inhibited; also recorded: prevents monocyte activation
- inhibition of monocyte activation ([3]; 100 μg/ml, listed as Dextran Sulfate): down regulates CD11b expression
- soft tissue swelling ([4]; by day 28 post-adjuvant injection, vs vehicle-treated AA rats): significantly decreased
- paw swelling (paw volume, plethysmometer) ([4]; with Aggrastat, compared to untreated controls, listed as Dextran Sulfate 40,000 molecular weight): significantly decreased
- inhibition of properdin binding to substrate-bound Dextran Sulfate [5]: inhibited
- inhibition of properdin binding to substrate-bound Dextran Sulfate ([5]; listed as Dextran Sulfate): dose-dependent inhibition
- inhibition of rRBC hemolysis ([6]; 100 μg/ml): complete inhibition of hemolysis
- inhibition of rRBC hemolysis ([6]; 200 μg/ml): complete inhibition of hemolysis
- inhibition of rRBC hemolysis ([6]; 400 μg/ml): complete inhibition of hemolysis
- inhibition of rRBC hemolysis ([6]; 800 μg/ml): complete inhibition of hemolysis
- inhibition of complement activity in human plasma (hemolysis) ([6]; 100, 400, 800 μg/ml lines of FIG. 10a): inhibits complement activity
- inhibition of rRBC hemolysis ([6]; around 40 μg/ml): No inhibition
- inhibition of AP activity in vivo ([7]; 24 hour later): no inhibition
- inhibition of complement activation in vivo [7]: complete inhibition
- inhibition of complement activation in vivo ([7]; listed as Dextran Sulfate): completely blocked
- inhibition of AP-dependent hemolysis ([8]; 10% human serum): inhibits hemolysis
- inhibition of AP-dependent hemolysis ([8]; 10% human serum, listed as Dextran Sulfate): caused inhibition
- inhibition of complement AP (hemolysis) ([8]; 30 μg/ml, 10% human serum): Total inhibition
- inhibition of erythrocyte lysis / AP function ([8]; increasing concentrations, human serum): completely blocking MAC-mediated cellular destruction; also recorded: full inhibition
